Measured values as given in patent publication US20150351390A1, “COMPOSITIONS AND METHODS FOR AUXIN-ANALOG CONJUGATION” (PIONEER HI-BRED INTERNATIONAL, INC., priority 2012, published 2015).

Tested on: Transgenic Arabidopsis lines overexpressing SEQ ID NO:3
Assay: Root growth inhibition by 2,4-D, transgenic Arabidopsis
Assay type: in vivo, Arabidopsis thaliana
Experimental: Arabidopsis (Arabidopsis thaliana) expressing GH3 genes were produced using floral dip methods of Agrobacterium mediated transformation (Clough S J and Bent A F, 1998, Plant J. 16:735-43; Chung M. H., Chen M. K., Pan S. M. 2000. Transgenic Res. 9: 471-476; Weigel D. and Glazebrook J. 2006. In Planta Transformation of Arabidopsis. Cold Spring Harb. Protoc. 4668 3). Briefly, Arabidopsis (Col-0) plants were grown in soil in pots. The first inflorescence shoots were removed as soon as they emerged. Plants were ready for transformation when the secondary inflorescence shoots were about 3 inches tall. Agrobacterium carrying a suitable binary vector were cultured in 5 mL LB medium at 28° C. with shaking at 200 rpm for two days. 1 mL of the culture was then inoculated into 200 ml fresh LB media and incubated again with vigorous agitation for an additional 20-24 hours at 28° C. The Agrobacterium culture was then subjected to centrifugation at 6000 rpm in a GSA rotor (or equivalent) for 10 minutes. The pellet was resuspended in 20-100 mL of spraying medium containing 5% (wt/v) sucrose and 0.01-0.2% (v/v) Silwet L-77. The Agrobacterium suspension was transferred into a hand-held sprayer for spraying onto inflorescences of the transformation-ready Arabidopsis plants. The sprayed plants were covered with a humidity dome for 24 hours before the cover was removed for growth under normal growing conditions. Seeds were harvested. Screening of transformants was performed under sterile conditions. Surface sterilized seeds were placed onto MS-Agar plates (Phyto Technology labs Prod. No. M519) containing appropriate selective antibiotics (kanamycin 50 mg/L, hygromycin 20 mg/L, or bialaphos 10 mg/L). Anti-Agrobacteirum antibiotic timentin was also included in the media. Plates were cultured at 21° C. at 16 hr light for 7-14 days. Transgenic events harboring GH3 genes were germinated and transferred to soil pots in the greenhouse for evaluation of herbicide tolerance.
A selectable marker gene used to facilitate Arabidopsis transformation was a chimeric gene composed of the 35S promoter from Cauliflower Mosaic Virus (Odell et al. 1985. Nature 313:810-812), the bar gene from Streptomyces hygroscopicus (Thompson et al., 1987. EMBO J. 6:2519-2523), and the 3′UBQ14 terminator region from Arabidopsis (Callis et al., 1995. Genetics 139 (2), 921-939). Another visual selectable marker gene used to facilitate Arabidopsis transformation was a chimeric gene composed of the UBQ promoter from soybean (Xing et al., 2010. Plant Biotechnology Journal 8:772-782), the YFP coding sequence, and the 3′ region of the nopaline synthase gene from the T-DNA of the Ti plasmid of Agrobacterium tumefaciens. Bialophos was used as the selection agent during the transformation process. GH3 genes were expressed with a constitutive promoter, for example, the Arabidopsis UBQ10 promoter (Norris et al., 1993. Plant Mol Biol 21:895-906) or UBQ3 promoter (Norris et al., 1993. Plant Mol Biol 21:895-906) for strong or moderate expression, a GH3 coding sequence, and the 3′ terminator region of the French bean phaseolin gene (Sun et al., 1981. Nature 289:37-41; Slightom et al., 1983. Proc. Natl. Acad. Sci. U.S.A. 80 (7), 1897-1901)
Seeds of Arabidopsis ecotype Columbia (Col-0) and GH3 transgenic events were surface sterilized with 70% (v/v) ethanol for 5 minutes and 10% (v/v) bleach for 15 minutes. After being washed three times with distilled water, the seeds were incubated at 4° C. for 4 days. The seeds were then germinated on 1× Murashige and Skoog (MS) medium with a pH of 5.7, 3% (w/v) sucrose, and 0.8% (w/v) agar. After incubation for 3.5 days, the seedlings were transferred to the basal medium containing B5 vitamin, 3% (w/v) sucrose, […] MES (pH 5.7), 1.2% (w/v) agar, and filter sterilized auxin herbicides 2,4-D or dicamba was added to the media at 60° C. […] The concentrations of dicmaba were 0 μM, 1.0 μM, 5.0 μM, 7.0 μM, and 10 μM. […]

O=C(O)COc1ccc(Cl)cc1Cl [2,4-D, 2,4-dichlorophenoxyacetic acid]
Percentage of the average root length compared with 0 nM 2,4-D treatment (Line #1, 10 nM 2,4-D): 80%
Percentage of the average root length compared with 0 nM 2,4-D treatment (Line #1, 100 nM 2,4-D): 43%
Percentage of the average root length compared with 0 nM 2,4-D treatment (Line #2, 10 nM 2,4-D): 83%
Percentage of the average root length compared with 0 nM 2,4-D treatment (Line #2, 100 nM 2,4-D): 36%
Percentage of the average root length compared with 0 nM 2,4-D treatment (Line #3, 10 nM 2,4-D): 88%
Percentage of the average root length compared with 0 nM 2,4-D treatment (Line #3, 100 nM 2,4-D): 63%
Percentage of the average root length compared with 0 nM 2,4-D treatment (Line #4, 10 nM 2,4-D): 101%
Percentage of the average root length compared with 0 nM 2,4-D treatment (Line #4, 100 nM 2,4-D): 60%
Percentage of the average root length compared with 0 nM 2,4-D treatment (Line #5, 10 nM 2,4-D): 76%
Percentage of the average root length compared with 0 nM 2,4-D treatment (Line #5, 100 nM 2,4-D): 50%
Inhibition of root growth by 2,4-D (transgenic line #4, 10 nM 2,4-D, result in words): completely alleviated
